Target: T1, human TrkA (Homo sapiens, UniProt P04629)
T1 construct: expressed in transfected cells; host or cells: AD293 cells
Assay: TrkA Cell Based Phosphorylation Assay
Conditions: Recombinant AD293 cells overexpressing human TrkA; TrkA Y490 phosphorylation upon 6 nM NGF stimulation; Phospho-TrkA (Tyr490) sandwich ELISA
Description: Recombinant AD293 cells overexpressing human TrkA were used to determine TrkA Y490 phosphorylation upon NGF stimulation. 25 k cells plated in serum free DMEM medium in a 96 well plate were serum starved for 2 hours at 37° C. in 5% CO2 incubator. Test compounds were added to the plate at a final concentration of 2.5% DMSO and incubated for 20 min at 37° C. 6 nM NGF was added and incubated for 5 min at 37° C. The plate was immediately centrifuged at 2000 rpm for 1 min and media removed. Lysis buffer containing 1% NP-40 Substitute, 20 mM Tris (pH 8.0), 137 mM NaCl final concentrations was added, mixed for one minute and kept on ice for 15 min with shaking every 5 minutes. 100 ul of the cell lysate was added to the PathScan® Phospho-TrkA (Tyr490) Sandwich ELISA plate with precoated wells and ELISA performed according to the manufacturer's instructions for color development. IC50 was generated in Graph Pad Prism software in non linear regression format.

T1 sequence (P04629 33-796): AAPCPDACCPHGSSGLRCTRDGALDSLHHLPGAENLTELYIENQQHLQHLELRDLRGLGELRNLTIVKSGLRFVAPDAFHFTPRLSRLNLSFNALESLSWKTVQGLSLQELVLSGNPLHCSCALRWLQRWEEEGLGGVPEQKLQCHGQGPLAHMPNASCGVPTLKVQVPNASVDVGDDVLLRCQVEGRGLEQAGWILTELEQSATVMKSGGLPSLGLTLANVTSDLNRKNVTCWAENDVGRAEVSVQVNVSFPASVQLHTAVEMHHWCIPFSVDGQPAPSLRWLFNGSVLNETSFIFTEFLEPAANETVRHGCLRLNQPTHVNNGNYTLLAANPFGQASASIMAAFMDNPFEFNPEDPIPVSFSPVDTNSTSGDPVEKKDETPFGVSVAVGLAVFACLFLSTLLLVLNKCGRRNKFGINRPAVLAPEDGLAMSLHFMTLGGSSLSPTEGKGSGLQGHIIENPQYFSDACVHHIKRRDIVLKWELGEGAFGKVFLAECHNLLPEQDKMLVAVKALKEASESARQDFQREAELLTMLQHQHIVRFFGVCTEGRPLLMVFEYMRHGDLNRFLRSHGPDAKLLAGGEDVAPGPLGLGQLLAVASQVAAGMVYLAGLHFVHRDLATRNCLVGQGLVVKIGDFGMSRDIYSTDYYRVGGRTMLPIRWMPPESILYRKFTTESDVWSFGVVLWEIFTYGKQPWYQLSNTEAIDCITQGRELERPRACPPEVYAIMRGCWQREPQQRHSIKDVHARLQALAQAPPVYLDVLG

| IC50 | SMILES |
| --- | --- |
| < 100 nM | COCCN1C[C@@H](NC(=O)Nc2cc3c(nc2-c2ccccc2)CCCC3)[C@H](c2ccccc2)C1 [Example 125, 1-((3S,4R)-1-(2-Methoxyethyl)-4-phenylpyrrolidin-3-yl)-3-(2-phenyl-5,6,7,8-tetrahydroquinolin-3-yl)urea] |
| 100 to 1000 nM | COCCN1C[C@@H](NC(=O)Nc2cccc3oc4ccccc4c23)[C@H](c2ccccc2)C1 [Example 104, 1-(Dibenzo[b,d]furan-1-yl)-3-((3S,4R)-1-(2-methoxyethyl)-4-phenylpyrrolidin-3-yl)urea] |
| > 1000 nM | COCCN1C[C@@H](NC(=O)Nc2cc3ccccc3nc2-c2ccncc2)[C@H](c2ccccc2)C1 [Example 33, 1-((3S,4R)-1-(2-Methoxyethyl)-4-phenylpyrrolidin-3-yl)-3-(2-(pyridin-4-yl)quinolin-3-yl)urea] |
| < 100 nM | COCCN1C[C@@H](NC(=O)Nc2c(-c3ccccc3)ncc3ccccc23)[C@H](c2ccccc2)C1 [Example 149, 1-((3S,4R)-1-(2-Methoxyethyl)-4-phenylpyrrolidin-3-yl)-3-(3-phenylisoquinolin-4-yl)urea] |
| 100 to 1000 nM | COCCN1C[C@@H](NC(=O)Nc2c(-c3ccccc3)nc(C(=O)O)c3cc(F)ccc23)[C@H](c2ccccc2)C1 [Example 190, 7-Fluoro-4-(3-(1-(2-methoxyethyl)-4-phenylpyrrolidin-3-yl)ureido)-3-phenylisoquinoline-1-carboxylic acid] |
| < 100 nM | COCCN1C[C@@H](NC(=O)Nc2cc3cc(OC)c(OC)cc3nc2-c2ccccc2)[C@H](c2cccc(F)c2)C1 [Example 74, 1-(6,7-Dimethoxy-2-phenylquinolin-3-yl)-3-((3S,4R)-4-(3-fluorophenyl)-1-(2-methoxyethyl)pyrrolidin-3-yl)urea] |
| 100 to 1000 nM | COCCN1C[C@@H](NC(=O)Nc2c(C(C)(C)C)nc(-c3cnn(C)c3)c3ccccc23)[C@H](c2ccccc2)C1 [Example 165, 1-(3-(tert-Butyl)-1-(1-methyl-1H-pyrazol-4-yl)isoquinolin-4-yl)-3-((3S,4R)-1-(2-methoxyethyl)-4-phenylpyrrolidin-3-yl)urea] |
| < 100 nM | COCCN1C[C@@H](NC(=O)Nc2cc3ccccc3nc2-c2ccccc2)[C@H](c2ccccc2)C1 [Example 2, 1-((3S,4R)-1-(2-methoxyethyl)-4-phenylpyrrolidin-3-yl)-3-(2-phenylquinolin-3-yl)urea] |
| < 100 nM | COCCN1C[C@@H](NC(=O)Nc2c(-c3ccccc3)nc(N3CCOCC3)c3ccccc23)[C@H](c2ccccc2)C1 [Example 172, 1-((3S,4R)-1-(2-Methoxyethyl)-4-phenylpyrrolidin-3-yl)-3-(1-morpholino-3-phenylisoquinolin-4-yl)urea] |
| 100 to 1000 nM | COCCN1C[C@@H](NC(=O)Nc2cc3c(OC)cccc3nc2-c2ccccc2)[C@H](c2ccccc2)C1 [Example 16, 1-(5-Methoxy-2-phenylquinolin-3-yl)-3-((3S,4R)-1-(2-methoxyethyl)-4-phenylpyrrolidin-3-yl)urea] |
